Data: patent publication US7499894B2, “Cerebral programming” (priority 2001, dated 2009)

What was measured:
[1] = test system: cultured cortical network; settings: perfusion with APV and CNQX together; many published reports; cited from earlier work
[2] = test system: cultured network of cortical neurons; experiment: Spiking activity of cultured cortical network, intracellular and MEA recordings; assay type: cell-based, rat; settings: all three applied together: 5 μM bicuculin, 10 μM DNQX and 20 μM APV; cortical neurons from newborn rats on MEA
Method: Culture techniques. Cortical neurons are obtained from newborn rats within 24 hours from birth, following standard procedures. The cortex tissue is digested enzymatically and mechanically dissociated. The neurons are plated directly onto substrate-integrated multi-electrode array (MEA) dishes (see below). The cultures are bathed in MEM supplemented with heat-inactivated horse serum (5%), Glutamine (0.5 mM), Glucose (20 mM), and Gentamycin (10 μg/ml), and maintained in an atmosphere of 37° C., 5% CO2 and 95% air in a tissue culture incubator and during the recording phases. Half of the medium is exchanged twice a week. Experiments are performed in the third week after plating, thus allowing complete maturation of the neurons.
The electrical activity of the cultured network is dependent upon synaptic transmission: there are many published reports showing that the electrical activity in a cultured cortical network may be blocked by perfusion with the N-Methyl-D-aspartate (NMDA) receptor antagonist D-2-amino-5-phosphonovalerate (APV) and non-NMDA receptor antagonist 6-cyano-7-nitroquinoxaline-2,3-dion (CNQX). We repeated these experiments, using intracellular recordings as well as MEA recordings.
Electrophysiological methods. We use arrays of 60 Ti/Au/TiN electrodes, 30 μm in diameter, spaced 200 μm from each other (MultiChannelSystems (MCS), Reutlingen, Germany). The insulation layer (silicon nitride), is pretreated with poly-L-lysine forming a good surface for network development. A commercial 60-channel amplifier (B-MEA-1060, MCS, Reutlingen, Germany) with frequency limits of 10-3000 Hz and a gain of ×1024 is used. The B-MEA-1060 is connected to MCPPlus filter amplifiers (Alpha Omega, Nazareth, Israel) for further amplification (×10 to ×20). Stimulation through the MEA is performed using a dedicated 8-channel stimulus generator (MCS, Reutlingen, Germany). Micro-incubation environment is arranged, to support long-term recordings from MEA dishes. […]

Compound	electrical activity in a cultured cortical network [1]	spiking activity within the cultured network [2]
N[C@H](CCCP(=O)(O)O)C(=O)O [APV, D-2-amino-5-phosphonovalerate]	blocked	completely abolished
N#Cc1cc2c(cc1[N+](=O)[O-])=NC(=O)C(=O)N=2 [CNQX, 6-cyano-7-nitroquinoxaline-2,3-dion]	blocked	–
O=[N+]([O-])c1cc2nc(O)c(O)nc2cc1[N+](=O)[O-] [DNQX]	–	completely abolished
CN1CCc2cc3c(cc2[C@H]1[C@@H]1OC(=O)c2c1ccc1c2OCO1)OCO3 [bicuculin]	–	completely abolished
